Reference: US5912247A, “Quinazoline compound and anti-tumor agent containing said compound as an active ingredient” (Kanebo, Ltd., priority 1995, dated 1999)
Structures can show the parent of a compound that is named as a salt.

Test system: Colon 26 solid tumor
Experiment: Inhibitory activity of dye accumulation in the solid tumor tissue (inhibition of the tumor blood flow)
Type: in vivo, Male BALB/c mice
Parameters: key to Inhibitory activity of dye accumulation into solid tumor: +: The average absorbance in the test group is significantly smaller than the average absorbance in the control group.; -: There is no significant difference in the average absorbance between the test group and the control group
Details: intravenous, Evans blue 1 hour after administration
Description: Inhibitory activity of dye accumulation in the solid tumor tissue (inhibition of the tumor blood flow): a) Materials: Test Animal: Male BALB/c mice (weighing 21-27 g, six mice per group) Tumor: Colon 26 solid tumor b) Test Method: Colon 26 solid tumor was cut in a size of about 1 mm square. The pieces of solid tumor were treated with a 0.25% collagenase solution and 0.02% deoxyribonuclease solution at 37° C. for 1.5 hour to give a cell suspension of colon 26 solid tumor cells. The cell suspension was adjusted to 3×10^6 cells/ml and the cell suspension (100 μl) was subcutaneously inoculated on the right back of male BALB/c mice. Ten days after the transplantation, the longitudinal size of the tumor was measured, and when the longitudinal size of the tumor reached about 10 mm, the mice were randomized. To the mice in test groups, the test compound was intravenously administered in an amount of 10 mg/kg or 1.25 mg/kg. The test compound was administered in the form of a solution in saline (in the test solution of Test Compound BF and BK, an equimolar amount of fumaric acid was further added, and in the test solution of Test Compound BN, an equimolar amount of hydrochloric acid was further added). To the mice in the control group, only saline was administered intravenously. One hour after the administration, 3% Evans blue-saline solution was injected intravenously via the tail vein of the mice in a volume of 0.1 ml per 10 g of the body weight of mouse, and 5 minutes later the mice were killed by luxation of the cervical vertebrae. After removing the tumor, the tumor was weighed. To extract Evans blue, the tumor was suspensed in 0.5% aqueous sodium sulfate (1.5 ml per 1 g of the tumor) and acetone (3.5 ml per 1 g of tumor), and then the tumor was cut into small pieces. After allowing to stand at room temperature overnight, the suspension were centrifuged at 3,000 rpm for 10 minutes to extract Evans blue, and the absorbance of the supernatant was read at 630 nm. […] (-): There is no significant difference in the average absorbance between the test group and the control group.

Row | Compound | Inhibitory activity of dye accumulation into solid tumor (1.25 mg/kg) | Inhibitory activity of dye accumulation into solid tumor (10 mg/kg)
1 | CC(=O)O.C[C@H](O)[C@@H](C)Oc1nc(N2CCNCC2)nc2ccccc12 (racemic) [Compound BC, 4-[(2RS,3SR)-(3-Hydroxybutan-2-yl)oxy]-2-(1-piperazinyl)quinazoline monoacetate] | + | +
2 | CC(=O)O.O[C@H]1CCC[C@H]1Oc1nc(N2CCNCC2)nc2ccccc12 (relative stereo) [Compound AB, 4-[cis-(2-Hydroxycyclopentan-1-yl)oxy]-2-(1-piperazinyl)quinazoline monoacetate] | - | +
3 | CC(=O)O.C[C@H](O)[C@H](C)Oc1nc(N2CCNCC2)nc2ccccc12 [Compound BD, 4-[(2S,3S)-(3-Hydroxybutan-2-yl)oxy]-2-(1-piperazinyl)quinazoline monoacetate] |  | +
4 | CO[C@@H]1C[C@H](Oc2nc(N3CCNCC3)nc3ccccc23)[C@@H](O)[C@H]1O [Compound AR, 4-[(1S,2S,3R,4R)-(2,3-Dihydroxy-4-methoxy-cyclopentan-1-yl)oxy]-2-(1-piperazinyl)quinazoline 1/2 fumarate] | + | +
5 | CC(=O)O.OCC(O)COc1nc(N2CCNCC2)nc2ccccc12 (racemic) [Compound BB, 4-[(RS)-(2,3-Dihydroxypropyl)oxy]-2-(1-piperazinyl)quinazoline monoacetate] | + | +
6 | OC[C@H](O)[C@H](O)COc1nc(N2CCNCC2)nc2ccccc12 (racemic) [Compound BK, 4-[(2RS,3SR)-(2,3,4-Trihydroxybutan-1-yl)oxy]-2-(1-piperazinyl)quinazoline] | + | +
7 | Cl.O[C@@H]1COC[C@H]1Oc1nc(N2CCNCC2)nc2ccccc12 [Compound AK, 4-[(3R,4R)-(4-Hydroxytetrahydrofuran-3-yl)-oxy]-2-(1-piperazinyl)quinazoline monohydrochloride] | + | +
8 | CC(=O)O.O[C@@H]1CCC[C@H]1Oc1nc(N2CCNCC2)nc2ccccc12 (relative stereo) [Compound AA, 4-[trans-(2-Hydroxycyclopentan-1-yl)oxy]-2-(1-piperazinyl)quinazoline monoacetate] | + | +
9 | O[C@@H]1COC[C@@H]1Oc1nc(N2CCNCC2)nc2ccccc12 (relative stereo) [Compound AG, 4-[cis-(4-Hydroxytetrahydrofuran-3-yl)oxy]-2-(1-piperazinyl)quinazolinemonoacetate] | + | +
10 | O[C@@H]1[C@H](O)[C@@H](Oc2nc(N3CCNCC3)nc3ccccc23)C[C@H]1O [Compound AP, 4-[(1S,2S,3S,4R)-(2,3,4-Trihydroxycyclopentan-1-yl)oxy]-2-(1-piperazinyl)quinazoline 1/2 fumarate] | + | +
11 | O[C@@H]1[C@H](O)[C@@H](Oc2nc(N3CCNCC3)nc3ccccc23)C[C@H]1O (relative stereo) [Compound AO, 4-[(t-2,t-3,c-4-Trihydroxycyclopentan-r-1-yl)-oxy]-2-(1-piperazinyl)quinazoline 1/2 fumarate] | + | +
12 | Cl.OC[C@@H](O)[C@H](O)COc1nc(N2CCNCC2)nc2ccccc12 [Compound BM, 4-[(2R,3R)-(2,3,4-Trihydroxybutan-1-yl)oxy]-2-(1-piperazinyl)quinazoline monohydrochloride] | + | +
13 | C[C@@H](O)[C@H](O)COc1nc(N2CCNCC2)nc2ccccc12 (racemic) [Compound BF, 4-[(2RS,3RS)-(2,3-Dihydroxybutan-1-yl)oxy]-2-(1-piperazinyl)quinazoline] | + | +
14 | C[C@@H](O)[C@H](O)COc1nc(N2CCNCC2)nc2ccccc12.Cl [Compound BH, 4-[(2R,3R)-(2,3-Dihydroxybutan-1-yl)oxy]-2-(1-piperazinyl)quinazoline monohydrochloride] | + | +
15 | O[C@@H]1COC[C@H]1Oc1nc(N2CCNCC2)nc2ccccc12 [Compound AJ, 4-[(3R,4R)-(4-Hydroxytetrahydrofuran-3-yl)-oxy]-2-(1-piperazinyl)quinazoline 1/2 hydrochloride] | + | +
16 | O[C@@H]1C[C@H](Oc2nc(N3CCNCC3)nc3ccccc23)C[C@@H]1O [Compound AN, 4-[(c-3,c-4-Dihydroxycyclopentan-r-1-yl)oxy]-2-(1-piperazinyl)quinazoline monohydrochloride] | + | +
17 | CC(=O)O.OC1CCC(Oc2nc(N3CCNCC3)nc3ccccc23)C1 (stereo not shown) [Compound AC, 4-[(3-Hydroxycyclopentan-1-yl)oxy]-2-(1-piperazinyl)quinazoline monoacetate] | + | +
18 | O[C@@H]1CCC[C@H]1Oc1nc(N2CCNCC2)nc2ccccc12 [Compound AE, 4-[(1R,2R)-(2-Hydroxycyclopentan-1-yl)oxy]-2-(1-piperazinyl)quinazolinemonoacetate] | + | +
19 | CO[C@H]1C[C@@H](Oc2nc(N3CCNCC3)nc3ccccc23)[C@H](O)[C@@H]1O.Cl [Compound AT, 4-[(1R,2R,3S,4S)-(2,3-Dihydroxy-4-methoxy-cyclopentan-1-yl)oxy]-2-(1-piperazinyl)quinazoline mono-hydrochloride] | + | +
20 | OC[C@@H](O)COc1nc(N2CCNCC2)nc2ccccc12 [Compound BN, 4-[(2R)-(2,3-Dihydroxypropan-1-yl)oxy]-2-(1-piperazinyl)quinazoline] | + | 
21 | CC(=O)O.C[C@@H](O)[C@@H](C)Oc1nc(N2CCNCC2)nc2ccccc12 [Compound BE, 4-[(2R,3R)-(3-Hydroxybutan-2-yl)oxy]-2-(1-piperazinyl)quinazoline monoacetate] |  | +
22 | O[C@H]1CCC[C@@H]1Oc1nc(N2CCNCC2)nc2ccccc12 [Compound AD, 4-[(1S,2S)-(2-Hydroxycyclopentan-1-yl)oxy]-2-(1-piperazinyl)quinazolinemonoacetate] | + | +
23 | CO[C@H]1C[C@@H](Oc2nc(N3CCNCC3)nc3ccccc23)[C@H](O)[C@@H]1O [Compound AS, 4-[(1R,2R,3S,4S)-(2,3-Dihydroxy-4-methoxy-cyclopentan-1-yl)oxy]-2-(1-piperazinyl)quinazoline 1/2 fumarate] | + | +
